Laboratory results: patent US12383571B2, “Method for enhancing tyrosinase inhibitory activity” (Jiangnan University, priority 2019, dated 2025)

System: tyrosinase
Test: Determination of tyrosinase activity by spectrophotometry (L-dopa substrate, 475 nm)
Assay type: biochemical
Details: single phenolic acid at 5 mM, other conditions as Example 1 (1.0 mg/mL protodioscin, 150° C. 30 min)
Protocol: A determining method of tyrosinase activity: spectrophotometry is employed, 2.8 ml of 2.5 mM L-dopa solution is taken as a substrate, 100 μL of treated inhibitor solution is taken, then 100 μL of 0.2 mg/mL tyrosinase solution is added for incubation at 30° C. for 15 min, and then a change in its light absorption value is measured at 475 nm, and taking tyrosinase activity without an inhibitor as 100%, a calculation formula is as follows: tyrosinase relative activity/%=(B2−B1)/(A2−A1)×100,
Where A1 and A2 represent light absorption values of a blank group at 0 min and 15 min, and B1 and B2 represent light absorption values of a sample at 0 min and 15 min. • 2.

Row | SMILES | tyrosinase relative activity (%)
1 | O=C(O)c1cc(O)c(O)c(O)c1 [gallic acid] | 97.25%
2 | COc1cc(-c2oc3cc(O)cc(O)c3c(=O)c2O)ccc1O [isorhamnetin] | 82.52%
3 | O=c1c(O)c(-c2ccc(O)c(O)c2)oc2cc(O)cc(O)c12 [quercetin] | 80.69%

Next, values leading:

Row | tyrosinase relative activity (%) | SMILES
4 | 102.32% | O=C(O)C=Cc1ccccc1 [cinnamic acid]
5 | 107.56% | COc1cc(/C=C/C(=O)O)ccc1O [ferulic acid]
